Bridges are numbered along the chain shown (N, C = ends). Where no end group is shown, it is not given here.
What was measured:
monocytes = assay: Leishmanicidal activity of monocytes (cell-mediated Th1 response); assay type: cell-based, dog; conditions: for immune response after vaccination (summary of Table I): dogs, 1 month after the 3rd injection, with adjuvant QA21
From the text: (§1) This evidence was gathered using two techniques: • Assaying the leishmanicidal activity of the monocytes according to the method described previously (Patent FRO1076060); • Detection of dog IgG2, specific to the cyclized peptide E34P and the carboxyterminal group of PSA.
(§2) Biological analysis consisted of: • Serology of specific IgG2 of cyclized peptide E34P and of the carboxyterminal group of PSA; • Leishmaniasis serology: quantitative immunofluorescence of the total IgG (sign of infection); • Leishmanicidal activity of the monocytes (cell-mediated response).

Leishmania = assay: Infection test in vaccinated dogs, parasitology from marrow punctures; assay type: in vivo; conditions: four months after the infection test
Protocol: The infection test consisted of intravenously injecting 10^8 complement-treated promastigotes in metacyclic phase from a healthy dog and 5×10^8 peritoneous macrophages from a healthy dog, infected in vitro by amastigotes.
The promastigotes and the infected macrophages were diluted in sterile physiological serum to a final volume of 1.5 mL. This mixture was made up just prior to injection.
A parasitological examination was carried out from samples taken directly from the dog.
A smear from the bone-marrow puncture was made on a slide. This smear, once fixed in methanol was May Grümwald Giemsa stained and studied under an immersion microscope (×1000).
Some bone-marrow samples were cultivated in a biphasic culture medium NNN (Novy and Mac Neal, 1904, 4. Infec. Dis., 1:1-30) of which RPMI 1640 added to 20% of decomplemented fetal veal serum made up the liquid phase. Random subculturing was carried out every 4 to 6 days. The cultures were regularly studied by photon microscope (×400) for 20 minutes.
The parasitemias were quantified as follows: • +/−: elongated, immobile, refringent forms • +: 1 to 5 mobile/field promastigote forms • ++: >5 mobile/field promastigote forms • +++: cultivated to confluence.
It was necessary to add to these analyses the study of Leishmania by direct observation under microscope and culture in NNN medium from the bone-marrow after the infection test. […]

[1] = system: Leishmania promastigotes and amastigotes; assay: Inhibition of parasitic growth by serums from vaccinated dogs; assay type: cell-based; conditions: in vitro
Protocol: Inhibition of the growth of promastigotes and amastigotes in the presence of IgG2 (Patent FR0209506).
The role of the IgG2 on the viability and growth of Leishmania promastigotes and amastigotes was analyzed with immunoserums from dogs vaccinated with the mixture including the cyclized peptide E34P and the serums from the placebo dogs.

cyclized peptide E34P = assay: ELISA serology of dog IgG2 vs. cyclised E34P after vaccination; assay type: in vivo; conditions: non-cyclization at Cys9/Cys15
Protocol: as §1
This detection was carried out by the ELISA method according to the microtitration technique of Kweider et al. (J. Immunol, 1987, 138, 299) by using an anti IgG2 conjugate. For this method, the peptide is biotinylated before coating onto microplates. This bonding to […] biotin-type molecules has the effect of rendering the cyclized peptide E34P more antigenic. We also use the recombinant protein coding for the carboxyterminal group of the PSA as antigen.
Biological analyses were carried out: • Before any injection • 1 month after the 3rd injection.
as §2

EDEHKGKYCRLGNDCRTTEPTTTATPRGTPTPAP (EDEHKGKYCRLGNDCRTTEPTTTATPRGTPTPAP; disulfide 9-15) [Group E34P]
immune response after vaccination (summary of Table I) (monocytes): only partial response
protection after the infection test (summary of Table II) (Leishmania): insufficient to induce an effective response
neutralizing / anti-parasitic role of the induced IgG2 [1]: induces IgG2 immunoglobulins capable of neutralizing the proliferation

NON-cyclized peptide E34P: the non-cyclized form of peptide E34P (SEQ ID No. 1 without Cys9/Cys15 disulfide bridge) (EDEHKGKYCRLGNDCRTTEPTTTATPRGTPTPAP; non-cyclized, no disulfide; Fully-synthetic sequence)
immune response after vaccination (summary of Table I) (monocytes): less effective than the cyclized E34P
Th1 stimulation (monocytes; peptide used alone or in combination with other peptides): only induces very partial Th1 stimulation
IgG2 synthesis (cyclized peptide E34P): only induces slight IgG2 synthesis

Reference: patent US20110104064A1, “CYCLIZED NON-NATIVE SYNTHETIC PEPTIDE AND COMPLEX OF PEPTIDES COMPRISING SAID CYCLIZED PEPTIDE, INTENDED TO INDUCE AND TO CH[…] PREVENTION OR TREATMENT OF CONDITIONS IN MAMMALS” (priority 2008, published 2011)
